Assay results: ChEMBL document CHEMBL3885861, “Open TG-GATES”

Organism: Rattus norvegicus
Assay: Open TG-GATES - Regimen: Single
Assay type: toxicity, organism-based, Sprague-Dawley
Parameters: regimen Single, gender Male, age 6 weeks
Conditions: in vivo, po, 300 mg/kg, route gavage, dose level High; for APTT / Bas / Eos / Fbg / Hb / Ht / Lym / MCH / MCHC / MCV / Mono / Neu / PT / Plat / RBC / Ret / WBC: tissue Blood; for KIDNEY_L / KIDNEY_R / KIDNEY_TOTAL: tissue Kidney; for LIVER: tissue Liver; for A/G / ALP / ALT / AST / BUN / CRE / Ca / Cl / DBIL / GLC / IP / K / LDH / Na / PL / RALB / TBIL / TC / TG / TP / gamma-GTP: tissue Plasma

Cc1ccc(C)c(OCCCC(C)(C)C(=O)O)c1 [GEMFIBROZIL]
TERMINAL_BW (3 h): 224.5 g
APTT (3 h): 15.3 s
Bas (3 h): 0%
Eos (3 h): 0.4%
Fbg (3 h): 299.8 mg/dL
Hb (3 h): 13.9 g/dL
Ht (3 h): 40.1%
Lym (3 h): 74%
MCH (3 h): 22.2 pg
MCHC (3 h): 34.6%
MCV (3 h): 64.1 fL
Mono (3 h): 3.2%
Neu (3 h): 20.8%
PT (3 h): 12.2 s
Plat (3 h): 122 x10_4/uL
RBC (3 h): 625.6 x10_4/ul
Ret (3 h): 7.4%
WBC (3 h): 74.7 x10_2/uL
KIDNEY_L (3 h): 0.9 g
KIDNEY_R (3 h): 1 g
KIDNEY_TOTAL (3 h): 1.9 g
LIVER (3 h): 9.5 g
A/G (3 h): 0.8
ALP (3 h): 1942.2 IU/L
ALT (3 h): 47 IU/L
AST (3 h): 75.6 IU/L
BUN (3 h): 13 mg/dL
CRE (3 h): 0.2 mg/dL
Ca (3 h): 11.4 mg/dL
Cl (3 h): 104.6 meq/L
DBIL (3 h): 0.2 mg/dL
GLC (3 h): 168 mg/dL
IP (3 h): 9.9 mg/dL
K (3 h): 4.4 meq/L
LDH (3 h): 75.6 IU/L
Na (3 h): 141.2 meq/L
PL (3 h): 188.8 mg/dL
RALB (3 h): 2.7 g/dL
TBIL (3 h): 0.082 mg/dL
TC (3 h): 83.6 mg/dL
TG (3 h): 320 mg/dL
TP (3 h): 5.8 g/dL
gamma-GTP (3 h): 1.2 IU/L
TERMINAL_BW (6 h): 222.4 g
APTT (6 h): 14.3 s
Bas (6 h): 0%
Eos (6 h): 0.6%
Fbg (6 h): 305.6 mg/dL
Hb (6 h): 13.7 g/dL
Ht (6 h): 40%
Lym (6 h): 77.4%
MCH (6 h): 21 pg
MCHC (6 h): 34.2%
MCV (6 h): 61.3 fL
Mono (6 h): 3.4%
Neu (6 h): 17.8%
PT (6 h): 11.8 s
Plat (6 h): 122.9 x10_4/uL
RBC (6 h): 651.8 x10_4/ul
Ret (6 h): 6.7%
WBC (6 h): 77.1 x10_2/uL
KIDNEY_L (6 h): 0.9 g
KIDNEY_R (6 h): 0.9 g
KIDNEY_TOTAL (6 h): 1.8 g
LIVER (6 h): 8.5 g
A/G (6 h): 0.9
ALP (6 h): 1762.4 IU/L
ALT (6 h): 44.2 IU/L
AST (6 h): 76.2 IU/L
BUN (6 h): 9.8 mg/dL
CRE (6 h): 0.2 mg/dL
Ca (6 h): 11.4 mg/dL
Cl (6 h): 106.4 meq/L
DBIL (6 h): 0.1 mg/dL
GLC (6 h): 171.2 mg/dL
IP (6 h): 10.8 mg/dL
K (6 h): 4.3 meq/L
LDH (6 h): 61.6 IU/L
Na (6 h): 142.6 meq/L
PL (6 h): 171.2 mg/dL
RALB (6 h): 2.7 g/dL
TBIL (6 h): 0.086 mg/dL
TC (6 h): 88.2 mg/dL
TG (6 h): 121 mg/dL
TP (6 h): 5.5 g/dL
gamma-GTP (6 h): 1.2 IU/L
TERMINAL_BW (9 h): 224.1 g
APTT (9 h): 15 s
Bas (9 h): 0%
Eos (9 h): 0.6%
Fbg (9 h): 306.4 mg/dL
Hb (9 h): 13.7 g/dL
Ht (9 h): 40.2%
Lym (9 h): 75.2%
MCH (9 h): 21.8 pg
MCHC (9 h): 34.1%
MCV (9 h): 64.1 fL
Mono (9 h): 2.4%
Neu (9 h): 21%
PT (9 h): 11.9 s
Plat (9 h): 117.7 x10_4/uL
RBC (9 h): 628 x10_4/ul
Ret (9 h): 7.8%
WBC (9 h): 52.7 x10_2/uL
KIDNEY_L (9 h): 1 g
KIDNEY_R (9 h): 0.9 g
KIDNEY_TOTAL (9 h): 1.9 g
LIVER (9 h): 8.3 g
A/G (9 h): 0.9
ALP (9 h): 1746.4 IU/L
ALT (9 h): 38.8 IU/L
AST (9 h): 68 IU/L
BUN (9 h): 10.6 mg/dL
CRE (9 h): 0.2 mg/dL
Ca (9 h): 11.3 mg/dL
Cl (9 h): 106.2 meq/L
DBIL (9 h): 0.1 mg/dL
GLC (9 h): 177.6 mg/dL
IP (9 h): 11.8 mg/dL
K (9 h): 4.3 meq/L
LDH (9 h): 59.4 IU/L
Na (9 h): 143.2 meq/L
PL (9 h): 143.8 mg/dL
RALB (9 h): 2.7 g/dL
TBIL (9 h): 0.076 mg/dL
TC (9 h): 73.2 mg/dL
TG (9 h): 59.6 mg/dL
TP (9 h): 5.7 g/dL
gamma-GTP (9 h): 1.4 IU/L
TERMINAL_BW (24 h): 224.7 g
APTT (24 h): 14.7 s
Bas (24 h): 0%
Eos (24 h): 0.8%
Fbg (24 h): 320.4 mg/dL
Hb (24 h): 13.6 g/dL
Ht (24 h): 39.5%
Lym (24 h): 80%
MCH (24 h): 21.5 pg
MCHC (24 h): 34.4%
MCV (24 h): 62.6 fL
Mono (24 h): 3.4%
Neu (24 h): 15.2%
PT (24 h): 12.2 s
Plat (24 h): 102.6 x10_4/uL
RBC (24 h): 631.8 x10_4/ul
Ret (24 h): 6.3%
WBC (24 h): 73.6 x10_2/uL
KIDNEY_L (24 h): 1 g
KIDNEY_R (24 h): 1 g
KIDNEY_TOTAL (24 h): 2 g
LIVER (24 h): 10.9 g
A/G (24 h): 1
ALP (24 h): 2167.4 IU/L
ALT (24 h): 46.4 IU/L
AST (24 h): 74 IU/L
BUN (24 h): 12.8 mg/dL
CRE (24 h): 0.2 mg/dL
Ca (24 h): 11.3 mg/dL
Cl (24 h): 105.6 meq/L
DBIL (24 h): 0.1 mg/dL
GLC (24 h): 189 mg/dL
IP (24 h): 8 mg/dL
K (24 h): 4 meq/L
LDH (24 h): 74.8 IU/L
Na (24 h): 141.8 meq/L
PL (24 h): 124 mg/dL
RALB (24 h): 2.7 g/dL
TBIL (24 h): 0.06 mg/dL
TC (24 h): 63.6 mg/dL
TG (24 h): 67.2 mg/dL
TP (24 h): 5.5 g/dL
gamma-GTP (24 h): 1.2 IU/L
